According to patent US7871960B2, “1-(Imidazolin-2-yl)amino-1,2-diphenylethane compounds for combating animal pests” (BASF SE, priority 2005, dated 2011):
Where a name gives a salt, the structure may show the parent alone.

Legend:
[1] = test system: Megoura viciae; assay: Vetch aphid (Megoura viciae) mortality on sprayed bean leaf disks in microtiterplates; assay type: in vivo; details: foliar, 144 h, bean leaf disks sprayed with 2.5 μl, 6 days, read-out: mortality in comparison with untreated controls
Protocol: The active compounds were formulated in 1:3 DMSO:water. Bean leaf disks were placed into microtiterplates filled with 0.8% agar-agar and 2.5 ppm OPUS™. The leaf disks were sprayed with 2.5 μl of the test solution and 5 to 8 adult aphids were placed into the microtiterplates which were then closed and kept at 22-24° C. and 35-45% under fluorescent light for 6 days. Mortality was assessed on the basis of vital, reproduced aphids. Tests were replicated 2 times.

Clc1cccc(CC(N=C2NCCN2)c2ccccc2)c1 (centres unmarked) (as salt: salt) [Example 1.1, [2-(3-Chloro-phenyl)-1-phenyl-ethyl]-(4,5-dihydro-1H-imidazol-2-yl)-amine hydroiodide]
melting point: 162 to 164 °C

CC(=O)N1CCN=C1NC(Cc1ccccc1)c1ccccc1 (centres unmarked) [Example 2.1, 1-[2-(1,2-Diphenylethylamino)-4,5-dihydroimidazol-1-yl]-ethanone]
mortality at 2500 ppm [1]: > 80%
